The values that follow come from PubChem BioAssay AID1963848 (Molecular Pharmacology Branch, DTP, NCI, 2024).

What is called viability, T/C is the result in the treated group divided by that in the control group, in per cent. Usually IC50 stands for the concentration needed to halve the response being measured.

Values joined by “and” are separate entries in the source; they are usually repeats but may differ in a detail not shown here. Equal entries are not always repeated. Some results are limits rather than exact numbers.

The experiment has as its system 379773-124-R-J2-PDC spheroid viability. As to the kind of experiment: Anticancer human tumor 379773-124-R-J2-PDC patient-derived endometrial carcinoma cell line growth inhibition [POLQ]. To be noted: spheroids with HUVEC and MSC; for viability, T/C: stronger effect = lower value; for IC50: curve of compound. As for the experimental part: Multicellular complex tumor spheroid response to Polymerase (POL) inhibitors (novobiocin, ART-558, RP6685) in combination with a variety of drugs and investigational agents in selected tumor cell lines
The POL inhibitors (novobiocin, ART-558, and RP6685) were evaluated both individually and in combination with standard of care and investigational anticancer small molecules within a complex spheroid model of solid tumors. . Complex spheroids include a stromal component modeled by human endothelial cells (HUVEC) and fibroblasts modeled by human mesenchymal stem cells (MSCs). The concentration ranges selected for each drug and investigational agent were based upon clinically achievable concentrations if the clinical Cmax of the agent was known.
Compounds. The drugs and investigational agents: novobiocin (NSC847541), ART-558 (NSC835418), RP-6685 (NSC848927), peposertib (NSC802822), ceralasertib (NSC780249), elimusertib (NSC800525), camonsertib (NSC841442), AZD-1390 (NSC803789), olaparib (NSC753686), talazoparib (NSC767125), rucaparib (NSC756644), sotorasib (NSC818433), MRTX-1133 (NSC836407), SN-38 (NSC673596), topotecan (NSC609699), epotoside (NSC141540), doxorubicin (NSC123127), gemcitabine (NSC613327), 5-fluorouracil (NSC19893), paclitaxel (NSC125973), vemurafenib (NSC761431), MSA-2 (NSC828583), SN-011 (NSC837082), adavosertib (NSC754352), prexasertib (NSC758257), carboplatin (NSC241240) and oxaliplatin (NSC266046), were obtained from the National Cancer Institute (NCI) Developmental Therapeutics Program Chemical Repository (21). The FDA-approved anticancer drug set is available from the Developmental Therapeutics Program at https://dtp.cancer.gov/organization/dscb/obtaining/. […] The stock solutions were prepared in dimethyl sulfoxide (DMSO, Sigma-Aldrich, St. Louis, MO, cat. D2650), except for the platinum compounds which were prepared in saline (Quality Biological, Gaithersburg, MD, cat. 114-055-101), at 800-fold the tested concentration and stored at -70 degrees C prior to their use. All drugs and investigational agents were tested over a range starting from a high concentration at or near the clinical Cmax and decreasing in half-log increments. If the clinical Cmax for an agent had not been determined, the highest concentration tested was 10 microM, except for SN-38, which was tested at a high concentration of 1 microM.
Cell Culture. All cells were maintained in an incubator at 37 degrees C and 5% CO2 with 95% humidity. The PDC lines were cultured according to standard operating procedures established by the NCI PDMR (https://pdmr.cancer.gov). Table 3 of the manuscript, lists the cell lines along with the number of the three cell types plated to form the mct-spheroids and media for tumor cell growth. After thawing, all PDC lines, except 997537-175-T-J1-PDC and 415267-285-R-J2-PDC, were cultured in Matrigel-coated flasks prepared with a working solution of 1X Ham's F-12 nutrient mix, without supplementation (Thermo Fisher Scientific, cat. 11765054), 100 U/mL penicillin-streptomycin (Thermo Fisher Scientific, cat. 15140122), and 2.5% Matrigel (Corning Inc., Corning, NY, cat. 354248) for the first three passages. The two PDC lines 997537-175-T-J1-PDC and 415267-285-R-J2-PDC were cultured on uncoated flasks. The 857933-349-R-J2-PDC line was cultured in 6C/Colon 1B media containing advanced DMEM/F-12 (Thermo Fisher Scientific, cat. 12634028), 10 mM HEPES (Thermo Fisher Scientific, cat. 15630080), 1X GlutaMAX supplement (Thermo Fisher Scientific, cat. 35050061), 0.1 mg/mL primocin (InvivoGen, San Diego, CA, cat. ant-pm-2), 10% defined fetal bovine serum, heat inactivated (HyClone Laboratories Inc., Logan, UT, cat. SH30070.03HI), 50% L-WRN conditioned media (ATCC, cat. CRL-3276), 1.25 mM N-Acetyl-L-cysteine (Sigma-Aldrich, cat. A9165), 10 mM nicotinamide (Sigma-Aldrich, cat. N0636), 1X B-27 supplement (Thermo Fisher Scientific, cat. 17504044), 1X N-2 supplement (Thermo Fisher Scientific, cat. […]
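Note: spheroids exposed to drugs for seven days before readout.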
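Throughout, for viability, T/C: percent viability relative to DMSO vehicle control taken as 100%.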

Consider `C#Cc1c(F)ccc2cc(O)cc(-c3ncc4c(N5CC6CCC(C5)N6)nc(OCC56CCCN5CC(F)C6)nc4c3F)c12` (stereo not drawn), for which the IC50 is more than 10 µM. Further, under “compound 0.0316 µM”, the viability, T/C was 89.7% and 98.6% and 95.6%. Where the note is “compound 0.1 µM”, the viability, T/C was 75.8% and 86.8% and 84.9%. Moreover, for the setting “compound 0.316 µM”, the viability, T/C is 76.9% and 105% and 79.6%. Also, the viability, T/C (compound 1 µM) is 82.7% and 98.4% and 90.6%. Further, where the note is “compound 3.16 µM”, the viability, T/C is 87.1% and 98.4% and 87.7%. The viability, T/C (compound 10 µM) is 81.7% and 93% and 90.7%.

`C=CC(=O)N1CCN(c2nc(=O)n(-c3c(C)ccnc3C(C)C)c3nc(-c4c(O)cccc4F)c(F)cc23)C(C)C1` (stereo not drawn): the IC50 is more than 10 µM. Moreover, under “compound 0.0316 µM”, the viability, T/C is 97.8% and 95.1% and 86.4%. Further, under “compound 0.1 µM”, the viability, T/C was 86.7% and 106% and 91.7%. Also, the viability, T/C (compound 0.316 µM) is 70% and 103% and 89.9%. Also, the viability, T/C (compound 1 µM) is 86.1% and 93.1% and 87.7%. For the same compound, where the note is “compound 3.16 µM”, the viability, T/C was 88.5% and 95.5% and 97.6%. Further, the viability, T/C (compound 10 µM) is 78.4% and 95.8% and 85.6%.

As for `CC(C)n1c(=O)n(C)c2cnc3cc(F)c(-c4ccc(OCCCN5CCCCC5)nc4)cc3c21`, the IC50 was more than 10 µM. In addition, the viability, T/C (compound 0.0316 µM) is 77.5% and 102% and 83.2%. Moreover, the viability, T/C (compound 0.1 µM) is 79.5% and 84.1% and 87.8%. The viability, T/C (compound 0.316 µM) is 78.7% and 88.7% and 68%. For the same compound, the viability, T/C (compound 1 µM) was 76.8% and 87.2% and 74.2%. Also, the viability, T/C (compound 3.16 µM) was 80% and 93.2% and 82.2%. Under “compound 10 µM”, the viability, T/C is 53.6% and 72.2% and 62.8%.

As to `CC1COCCN1c1cc(C2(O)CC3CCC(C2)O3)c2cnn(-c3ccn[nH]3)c2n1` (stereo not drawn), the IC50 is 0.0844 µM and 0.0944 µM and 0.127 µM. Moreover, the viability, T/C (compound 0.0316 µM) was 90.7% and 78.4% and 84.5%. The viability, T/C (compound 0.1 µM) is 43% and 48.6% and 58.8%. For the same compound, the viability, T/C (compound 0.316 µM) was 11.1% and 12% and 16.6%. Besides, the viability, T/C (compound 1 µM) is 10.4% and 9.93% and 13.2%. Moreover, the viability, T/C (compound 3.16 µM) was 8.43% and 7.19% and 10.1%. Besides, the viability, T/C (compound 10 µM) was 2.25% and 2.29% and 3.67%.

As to `CCc1cc2c(N3CCc4c(cc(Cn5ccnc5)cc4-c4cn(C)nc4C(F)(F)F)C3=O)cc(C)nc2c(OC)n1`, the IC50 is 1.26 µM and > 10 µM and 8.12 µM. Besides, the viability, T/C (compound 0.0316 µM) is 70.7% and 94% and 69.3%. The viability, T/C (compound 0.1 µM) was 73.2% and 69.1% and 70.4%. Moreover, the viability, T/C (compound 0.316 µM) is 54.8% and 60.2% and 68.2%. The viability, T/C (compound 1 µM) is 55.9% and 57.2% and 61.2%. Where the note is “compound 3.16 µM”, the viability, T/C was 41.9% and 60.5% and 56.2%. The viability, T/C (compound 10 µM) was 40% and 47.3% and 48.9%.

As for `CCc1cc2c(N3CCc4c(cc(Cn5ccnc5)cc4-c4cn(C)nc4C(F)(F)F)C3=O)ccnc2c(OC)n1`, the IC50 was 3.4 µM and > 10 µM. Where the note is “compound 0.0316 µM”, the viability, T/C was 72.1% and 87.3% and 77.8%. Besides, the viability, T/C (compound 0.1 µM) was 65% and 74.8% and 74.2%. The viability, T/C (compound 0.316 µM) was 53.4% and 64% and 69.2%. Further, where the note is “compound 1 µM”, the viability, T/C was 54.6% and 64.1% and 67.8%. In addition, the viability, T/C (compound 3.16 µM) was 63.3% and 59.9% and 57.4%. For the same compound, under “compound 10 µM”, the viability, T/C is 37.2% and 57.8% and 53.6%.

Regarding `COc1cc2cc(C(=O)CCC(=O)O)sc2cc1OC`, the half-inhibitory concentration (IC50) is more than 10 µM. For the setting “compound 0.0316 µM”, the viability, T/C was 89.3% and 91.6% (2×). In addition, under “compound 0.1 µM”, the viability, T/C was 85.4% and 96.8% and 107%. Also, under “compound 0.316 µM”, the viability, T/C is 85.8% and 90.2% and 80.9%. In addition, the viability, T/C (compound 1 µM) was 94.6% and 96.7% and 94%. Moreover, where the note is “compound 3.16 µM”, the viability, T/C was 105% and 95.3% and 92.9%. Where the note is “compound 10 µM”, the viability, T/C is 91.6% and 79.1% and 73.2%.

As to `COc1ccc([C@@H](O)c2cc(-c3ncnc4cc(N5CCOCC5)ccc34)c(F)cc2Cl)nn1`, the IC50 is 6.28 µM and 8.03 µM and 7.52 µM. For the same compound, the viability, T/C (compound 0.0316 µM) was 92.5% and 98.9% and 94.2%. Moreover, for the setting “compound 0.1 µM”, the viability, T/C was 91.3% and 93.2% and 82.2%. In addition, the viability, T/C (compound 0.316 µM) was 79.4% and 93.5% and 84.7%. The viability, T/C (compound 1 µM) was 99.3% and 110% and 87.4%. The viability, T/C (compound 3.16 µM) was 67.8% and 76.8% and 86.3%. Also, the viability, T/C (compound 10 µM) is 37.9% and 43.7% and 38.1%.

Turning to `O=C(Nc1ccc(O)c(NS(=O)(=O)c2ccc(F)cc2)c1)c1ccc(-c2ccccc2)cc1`, the IC50 was more than 10 µM. Further, the viability, T/C (compound 0.0316 µM) is 98.6% and 86.4% and 88.8%. For the setting “compound 0.1 µM”, the viability, T/C is 96% and 86.4% and 90.7%. Further, the viability, T/C (compound 0.316 µM) is 97.9% and 93.9% and 76.7%. Besides, the viability, T/C (compound 1 µM) is 105% and 82.9% and 109%. The viability, T/C (compound 3.16 µM) is 91.6% and 97.1% and 84.3%. Moreover, under “compound 10 µM”, the viability, T/C is 77.9% and 78.2% and 65.2%.
